In patent US6083941A, “Inhibition of NMDA receptor activity by pregnenolone sulfate derivatives” (Trustees of Boston University, priority 1998, dated 2000):
pIC50: −log10 of the molar value. ≈ marks a conversion by molar mass, not a printed value. Structures can show the parent of a compound that is named as a salt. Where two headings read alike, the source gives them in different places.

Key:
[1] = Maximal solubility in the external buffer; format: physicochemical; details: pH 7.2, aqueous buffer, 0.5% dimethyl sulfoxide
[2] = test system: NMDA receptor; experiment: Whole cell patch clamp, NMDA-induced current in cultured chick spinal cord neurons; format: cell-based; details: for inhibition of the NMDA response by extracellular steroid: 100 μM extracellular; for pIC50: read-out: IC50 for inhibition of the NMDA response
Experimental: (§1) Cultures of dissociated spinal cord neurons were prepared as previously described (Farb, D. H., et al., J. Cell Biol., 80:651-661 (1979)). Briefly, the dissociated cells from 7-day chick embryos were plated on collagen-coated 35-mm tissue culture dishes in Eagle's minimum essential medium supplemented with 2.4 mM glutamine, 10% (v/v) heat-inactivated horse serum, 5% (v/v) chick embryo extract and antibiotics. Cultures were maintained in a humidified atmosphere of 5% CO2, 95% air at 37°. Cytarabine (1 μM) was added to the culture medium after 36 hr. of the initial plating to inhibit the proliferation of non-neuronal cells. One day later, this medium was replaced with a similar medium supplemented with 20.5 mM glucose, 19 mM KCl, and 2.5% chick embryo extract. Fresh medium was added twice weekly. Cultured neurons were used in experiments within 2-4 weeks after plating.
Experiments were carried out in 35-mm tissue culture dishes on the stage of an inverted phase contrast microscope. Whole cell currents were recorded by the whole cell variant of the patch clamp technique (Hamill, O. P., et al., Pfagers Arch. 891:85-100 (1981)). Patch electrodes had tip openings of about […] and resistances of 3-8 M.OMEGA. using an intracellular solution comprised of the following (in mM): 140 CsCl, 11 EGTA, and 10 HEPES (pH adjusted to 7.2 with CsOH). In experiments in which a high concentration of glycine was used, the intracellular solution was replaced with a low chloride (10 mM) pipette solution. This solution contained the following (in mM): 140 potassium gluconate, 10 KCl, 8 sodium gluconate, 11 EGTA, and 10 HEPES (pH adjusted to 7.2 with KOH). To prevent a marked run-down of NMDA-induced current at high NMDA concentrations, 4 mM potassium ATP was included in the intracellular solution. The bath solution contained the following (in mM): 150 NaCl, 4 KCl, 1 CaCl2, and 10 HEPES (pH adjusted to 7.2 with NaOH). No glycine was added to the solutions containing NMDA, because no additional glycine was required to obtain a robust NMDA response, and there was no effect of a maximal concentration (10 μM) of glycine on 5β3αS inhibition of the NMDA response. All experiments were performed at room temperature (23-25° C.).
Recordings were made using an Axopatch 1B patch clamp apparatus (Axon Instruments, Burlingame, Calif.). Cells with series resistances greater than 10 M.OMEGA. were rejected. After partial compensation, series resistances were between 3.5 and 6 M.OMEGA.. The holding potential was maintained at -70 mV unless otherwise noted. Currents were filtered at 1 kHz using an eight-pole Bessel filter (-3 dB) and digitized ([…]) using an on-line data acquisition system (pClamp, Axon Instruments).
Drug solutions were applied to single neurons by pressure ejection (15 psi) from seven-barrel pipettes. Seven-barrel pressure pipettes were positioned approximately […] from the neuronal soma. Under these conditions, the drug solution in the pressure pipette rapidly and effectively replaces the solution surrounding the target neurons with less than 10% dilution (Choi, D. W., et al., Nature (Lond.) 269:342-344 (1977); Chan, C. Y., et al., Life Sci., 83:2061-2069 (1983); Chan, C. Y. and Farb, D. H., J. Neurosci., 5:2365-2373 (1985)). All drugs were obtained from Sigma, with the except of AMPA hydrobromide (Research Biochemicals) and steroids (Steraloids). Stock solutions of steroids were prepared in dimethyl sulfoxide, the final concentration of which was 0.5% (v/v). To obviate the possible effects of dimethyl sulfoxide on the relevant agonist-induced currents, all other drug solutions including NMDA, kainate, AMPA and external buffer (in the pressure pipette) also contained 0.5% dimethyl sulfoxide. […]

[3] = test system: AMPA receptors; experiment: Whole cell patch clamp, AMPA-induced current in cultured chick spinal cord neurons; format: cell-based; details: 100 μM steroid; -70 mV
Experimental: as §1
(§2) Experiments were carried out in 35-mm tissue culture dishes on the stage of an inverted phase contrast microscope. Whole cell currents were recorded by the whole cell variant of the patch clamp technique (Hamill, O. P., et al., Pfagers Arch. 891:85-100 (1981)). Patch electrodes had tip openings of about […] and resistances of 3-8 M.OMEGA. using an intracellular solution comprised of the following (in mM): 140 CsCl, 11 EGTA, and 10 HEPES (pH adjusted to 7.2 with CsOH). […]

[4] = molecular target: T1, recombinant NMDA receptors (NR1100 and NR2A subunits) (Rattus norvegicus, UniProt P35439+Q00959); experiment: Two electrode voltage-clamp of Xenopus oocytes expressing recombinant NMDA receptors; format: cell-based
T1 construct: expressed in transfected cells; host or cells: Xenopus laevis oocytes injected with in vitro transcribed mRNA
Experimental: RNA preparation. mRNA were prepared through in vitro transcription of NR1100 and NR2A cDNAs using the mMessage mMachine kit (Ambion, Tex.). NR1100 and NR2A clones were kindly provided by Dr. Zukin and Dr. Nakanishie.
Xenopus expression system. Female, oocyte positive Xenopus laevis frogs were purchased from Nasco, Inc. (WI). The frogs were kept on a 12/12 light-dark cycle and maintained on a diet of chopped calf liver every 3 days. Prior to surgery, frogs were anesthetized in a 0.15% Tricaine solution (Sigma, Mo.) for 30-45 minutes. Ovarian sections containing the follicular oocytes were removed through a lateral abdominal incision and were immediately placed in calcium-free ND96 solution (in mM):96 NaCl; 1 MgCl2; 2 KCl; 5 Hepes; 2.5 pyruvate (pH adjusted to 7.4 with NaOH). Following a 2 hr. incubation in 0.2% collagenase type II (Sigma, Mo.) at room temperature, individual defolliculated oocytes were transferred into 60×15 mm glass petri dishes containing ND96 solution (in mM): 96 NaCl; 1 MgCl2; 2 KCl; 1.8 CaCl2; 5 Hepes; 2.5 pyruvate (pH adjusted to 7.4 with NaOH). The isolated oocytes were maintained in an incubator at 18° C. On the following date, batches of 20-40 selected oocytes (Dumont stage V and VI) were injected with 50 nl of prepared RNA solution (0.5 ng of NR1 and 12 ng of NR2A mRNAs per oocyte) using an electronic microinjector (Drummond, Pa.). The injected oocytes were used for electrophysiological experiments following 4-10 day incubation at 18° C.
Electrical recording and drug application. The ion current recordings were obtained in two electrodes voltage-clamp mode using an Axoclamp-2A amplifier (Axon Instruments, Inc., CA). The microelectrodes were fabricated with a programmed puller (Sutter Instrument Co., CA) from glass capillaries (Dagan, Minn.) and filled with 3M KCl solution. The resistance of filled microelectrodes was in the range of 2.5-3.5 M.OMEGA.. The oocytes were clamped at a holding potential of -70 mV. The membrane current was filtered at 500 Hz and sampled at 100 Hz frequency. The drugs were applied using a gravity driven external perfusion system. The data acquisition and external perfusion control were done using SuperScopeII software package (GW Instruments, MA). All experiments were performed at room temperature of 22-24° C.
The degree of modulation of the amino acid response by steroids, the percent change, was defined at (I'/I-1)×100%, where I and I' are respectively the agonist-induced currents in the absence and presence of steroid. Throughout, results are expressed as mean±SEM; statistical comparison of groups was carried out using Student's t test.

[5] = test system: kainate receptors; experiment: Whole cell patch clamp, kainate-induced current in cultured chick spinal cord neurons; format: cell-based; details: 100 μM steroid; -70 mV
Experimental: as §1, §2

[6] = test system: NMDA-induced seizure and death in mice; experiment: NMDA-induced seizure and death (100 mg/kg NMDA challenge); format: in vivo; details: steroid 25 mg/kg i.p., DMSO 50%
Experimental: 5β3αHS (25 mg/kg, i.p.) protects mice from NMDA-induced death. None of the steroids tested altered the latency to NMDA-induced seizure. However, 100% of the animals that received 5β3αHS survived the 100 mg/kg NMDA challenge compared to 50% for DMSO, 75% for 5β3αS and E2 (3)HS, and 50% for E2 (17)HS.

[7] = test system: mice; experiment: Behavioral observational assessment after i.p. steroid; format: in vivo; details: 25 mg/kg i.p., 30 min. after injection
Experimental: To test for behavioral effects, PS, 5β3αS, 5β3αHS, βE2 (17)HS, or βE2 (3)HS (7 mg/ml in DMSO) was administered to mice i.p. at 25 mg/kg (5 animals per drug group). Behavioral assessments were made 30 min. after injection using a comprehensive observational assessment of motor-affective responses, sensory-motor responses, posture, muscle tone, equilibration, CNS excitation, and autonomic function (Irwin, R. P., et al., NeuroSci. Lett., 141:30-44 (1968)). […] The latency to loss of righting reflex was 2.5±0.5 min., and the latency to regain the righting reflex was 83±11 min. The rapidity of onset argues that 5β3αHS readily crosses the blood brain barrier.

[8] = test system: NMDA-induced convulsion and mortality in mice; experiment: NMDA-induced convulsion test (200 mg/kg NMDA); format: in vivo; details: mice, i.v. administration, FIG. 8
Experimental: Male CD-1 mice (Charles River Laboratories, Wilmington, Mass.) weighing 20-25 g were used for the NMDA-induced convulsion test. Mice were injected intraperitoneally with the test compound dissolved in DMSO or with vehicle. NMDA (200 mg/kg, i.p.) was injected either 2 minutes after intravenous injection of test compound or 20 minutes after intraperitoneal injection of test compound.

[9] = 200 μM steroid in the absence of PS
[10] = 200 μM steroid in the presence of 200 μM PS

T1 sequence (Q00959 23-1464, other chains not shown): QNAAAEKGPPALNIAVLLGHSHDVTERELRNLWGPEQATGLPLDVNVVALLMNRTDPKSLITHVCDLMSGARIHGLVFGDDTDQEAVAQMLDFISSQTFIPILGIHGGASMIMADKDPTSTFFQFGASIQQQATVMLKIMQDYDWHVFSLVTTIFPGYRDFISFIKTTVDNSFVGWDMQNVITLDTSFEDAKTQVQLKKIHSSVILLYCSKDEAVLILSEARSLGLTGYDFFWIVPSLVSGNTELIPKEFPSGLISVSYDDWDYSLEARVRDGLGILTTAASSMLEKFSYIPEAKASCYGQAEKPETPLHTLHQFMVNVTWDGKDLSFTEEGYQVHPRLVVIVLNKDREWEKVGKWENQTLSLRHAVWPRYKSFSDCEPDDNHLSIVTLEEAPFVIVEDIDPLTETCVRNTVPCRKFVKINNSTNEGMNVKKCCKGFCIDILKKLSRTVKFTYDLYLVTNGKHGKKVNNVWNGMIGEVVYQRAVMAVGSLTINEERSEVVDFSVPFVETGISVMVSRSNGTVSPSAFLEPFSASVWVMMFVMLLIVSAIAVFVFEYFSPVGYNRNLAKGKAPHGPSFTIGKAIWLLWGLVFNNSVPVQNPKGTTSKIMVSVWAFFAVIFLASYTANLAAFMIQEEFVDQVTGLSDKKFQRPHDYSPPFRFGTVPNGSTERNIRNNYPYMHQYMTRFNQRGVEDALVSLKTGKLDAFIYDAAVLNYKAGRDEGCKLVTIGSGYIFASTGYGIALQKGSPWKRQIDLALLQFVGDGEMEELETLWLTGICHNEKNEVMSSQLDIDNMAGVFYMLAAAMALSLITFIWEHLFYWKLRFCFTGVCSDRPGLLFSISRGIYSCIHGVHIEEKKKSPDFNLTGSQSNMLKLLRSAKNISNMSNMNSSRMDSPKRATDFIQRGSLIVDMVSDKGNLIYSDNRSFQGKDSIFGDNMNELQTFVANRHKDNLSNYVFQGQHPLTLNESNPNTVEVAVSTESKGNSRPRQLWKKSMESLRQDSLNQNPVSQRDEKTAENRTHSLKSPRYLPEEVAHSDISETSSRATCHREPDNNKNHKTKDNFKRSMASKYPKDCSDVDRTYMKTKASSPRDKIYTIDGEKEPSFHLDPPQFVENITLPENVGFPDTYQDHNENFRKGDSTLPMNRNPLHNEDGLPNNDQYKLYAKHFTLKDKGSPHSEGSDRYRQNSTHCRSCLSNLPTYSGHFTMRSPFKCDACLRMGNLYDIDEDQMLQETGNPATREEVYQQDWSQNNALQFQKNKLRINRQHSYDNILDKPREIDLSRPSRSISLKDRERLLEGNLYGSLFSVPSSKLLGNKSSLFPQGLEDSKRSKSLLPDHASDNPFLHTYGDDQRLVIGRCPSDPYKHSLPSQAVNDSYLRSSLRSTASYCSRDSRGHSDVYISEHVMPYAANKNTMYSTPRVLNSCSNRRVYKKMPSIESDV

## CC(=O)[C@H]1CC[C@H]2[C@@H]3CC[C@@H]4C[C@H](O)CC[C@]4(C)[C@H]3CC[C@]12C [5β3α, reference compound]
[1]
  solubility: 50 µM (≈ 15.9 µg/mL)
[2]; 50 μM nonsulfated steroid
  potentiation of the 30 μM NMDA-induced current: 3.6±8.4%
[2]; 60 μM nonsulfated steroid
  effect on the NMDA response: does not produce any significant effect

## CC(=O)[C@H]1CC[C@H]2[C@@H]3CC[C@@H]4C[C@@H](OS(=O)(=O)O)CC[C@]4(C)[C@H]3CC[C@]12C [5β3βS, 3β-hydroxy-5β-pregnan-20-one sulfate]
[3]
  inhibition of the 25 μM AMPA-induced current: 43%
[4]; 200 μM steroid
  inhibition of a near maximal NMDA response (200 μM): 54±8%
[4]; [9]
  inhibition of the peak NMDA response: 46±8%
[4]; [10]
  inhibition of the peak NMDA response: 54±5%
[4]; IC50, in the absence of PS
  pIC50: 3.82
[4]; IC50, in the presence of 200 μM PS
  pIC50: 3.91
[2]; in the absence of intracellular 5β3βS
  inhibition of the NMDA response by extracellular steroid: 48±4%
[2]; in the presence of intracellular 5β3βS
  inhibition of the NMDA response by extracellular steroid: 44±4%
[2]; 100 μM steroid applied with NMDA, holding potential -70 mV
  inhibition of the response to 30 μM NMDA: 59%
[2]; 100 μM steroid, 10 μM glycine
  inhibition of the 30 μM NMDA response with saturating glycine: did not significantly differ from that measured without added glycine
[2]; 100 μM steroid, CsCl-containing intracellular solution, 2 cells
  average inhibition of the NMDA response: 49±5.0%
[2]; 100 μM steroid, in the presence of 100 μM spermine
  inhibition of the NMDA response: 50±5%
[2]; [9]
  inhibition of the peak NMDA response: 59±3%
[2]; 200 μM steroid in the intracellular buffer
  effect of intracellular steroid on NMDA-induced currents: does not inhibit the NMDA-induced currents
[2]; [10]
  inhibition of the peak NMDA response: 50±4%
[2]; after NEM treatment
  inhibition of the NMDA response: 53±5%
[2]; in the presence of arachidonic acid
  inhibition of the NMDA response: 49±5%
[2]; in the absence of PS
  pIC50: 3.84
[2]; in the presence of 200 μM PS
  pIC50: 3.92
[2]; steroid alone at greater than or equal to 100 μM, K+ current, not seen with CsCl intracellular solution
  direct response to steroid applied alone: often induced a small outward current
[5]
  inhibition of the 50 μM kainate-induced current: 33%

## C[C@]12CC[C@@H]3c4ccc(OC(=O)CCC(=O)O)cc4CC[C@H]3[C@@H]1CC[C@@H]2O [17βE(3)HS, 17β-estradiol-3-hemisuccinate]
[6]
  animals that survived the 100 mg/kg NMDA challenge: 75%
[7]
  behavioral assessment: very minor behavioral impairment
[8]
  seizures and mortality induced by NMDA: effective in blocking seizures and mortality

## C[C@]12CC[C@@H]3c4ccc(O)cc4CC[C@H]3[C@@H]1CC[C@@H]2OC(=O)CCC(=O)O [17βE(17)HS, 17β-estradiol-17-hemisuccinate]
[6]
  animals that survived the 100 mg/kg NMDA challenge: 50%
[7]
  behavioral assessment: very minor behavioral impairment
[8]
  seizures and mortality induced by NMDA: effective in blocking seizures and mortality
